Target: T1, prostanoid EP3 receptors (Homo sapiens, UniProt P43115)
T1 sequence (P43115 1-390): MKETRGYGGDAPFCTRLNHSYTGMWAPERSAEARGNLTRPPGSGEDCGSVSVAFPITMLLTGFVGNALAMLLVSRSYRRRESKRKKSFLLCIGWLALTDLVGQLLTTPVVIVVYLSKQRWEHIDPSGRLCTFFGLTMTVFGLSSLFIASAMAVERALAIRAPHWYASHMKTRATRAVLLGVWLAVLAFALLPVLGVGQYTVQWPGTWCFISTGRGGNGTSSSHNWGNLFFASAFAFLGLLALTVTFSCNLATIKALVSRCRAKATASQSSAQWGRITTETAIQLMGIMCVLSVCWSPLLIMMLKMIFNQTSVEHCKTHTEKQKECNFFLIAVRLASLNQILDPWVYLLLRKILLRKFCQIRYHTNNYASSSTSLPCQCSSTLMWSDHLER
Assay: binding on prostanoid EP3 receptors (method of Abramovitz et al.)
Settings: read-out: Activity (EP3 receptor binding, IC50 class)
Method: The compounds of the invention were assayed for their binding on prostanoid EP3 receptors according to the method of Abramovitz et al. [Bioch. Biophys.

Compound | IC50 [nM]
O=C(COc1cccc2oc(=O)n(Cc3ccc4ccccc4c3)c12)NS(=O)(=O)C(F)(F)F [Compound P048] | 1000 to 10000
Cc1nc2cccc(OCC(=O)NS(=O)(=O)c3cccs3)c2n1Cc1ccc2ccccc2c1 [Compound P037, Thiophen-2-sulfonic acid [2-(2-methyl-3-naphthalen-2-ylmethyl-3H-benzoimidazol-4-yloxy)-acetyl] amide] | 1000 to 10000
Cc1cn(Cc2cccc(C(F)(F)F)c2)c2c(/C=C/C(=O)NS(=O)(=O)c3cc(Cl)c(Cl)s3)cccc12 [Compound P119] | < 1000
Cc1cn(Cc2ccc3ccccc3n2)c2c(/C=C/C(=O)NS(=O)(=O)c3cccs3)cccc12 [Compound P099] | < 1000
Cc1cn(Cc2ccccc2)c2c(/C=C/C(=O)NS(=O)(=O)c3cc(Cl)c(Cl)s3)cccc12 [Compound P122] | < 1000
CC1(O)C(=O)N(Cc2ccc(Cl)cc2Cl)c2c(C=CC(=O)NS(=O)(=O)c3cc(Cl)c(Cl)s3)cccc21 (centres unmarked) [Compound P133] | < 1000
O=C(CN1CCCc2cccc(OCc3ccc4ccccc4c3)c21)NS(=O)(=O)c1cccs1 [Compound P015] | 1000 to 10000
O=C(COc1cccc2c1C(F)(Cc1ccc3ccccc3c1)C(=O)N2)NS(=O)(=O)c1cc(Cl)c(Cl)s1 (centres unmarked) [Compound P157] | < 1000
O=C(/C=C/c1cccc2c(CO)cn(Cc3ccc(Cl)cc3Cl)c12)NS(=O)(=O)c1cccs1 [Compound P062] | < 1000
O=C(CCc1cccc2c1N(Cc1ccc3ccccc3c1)C(=O)C21OCCO1)NS(=O)(=O)c1cccs1 [Compound P097] | < 1000
O=C(COc1cccc2[nH]cc(Sc3nc4ccccc4o3)c12)NS(=O)(=O)c1cc(Cl)c(Cl)s1 [Compound P181] | < 1000
COc1c(C)cnc(Cn2ccc3cccc(C=CC(=O)NS(=O)(=O)c4cccs4)c32)c1C [Compound P055] | 1000 to 10000
Cc1ccc(C)c(Cn2c(=O)oc3cccc(OCC(=O)NS(=O)(=O)c4cccs4)c32)c1 [Compound P053] | 1000 to 10000
Cc1cn(Cc2cccc(OC(F)(F)F)c2)c2c(/C=C/C(=O)NS(=O)(=O)c3cc(Cl)c(Cl)s3)cccc12 [Compound P140] | < 1000

Second part, the molecule after the results:

IC50 [nM] | Compound
< 1000 | Cc1cn(CCC(=O)NS(=O)(=O)c2cc(F)c(F)cc2F)c2c(Oc3ccc4ccccc4c3)cc(F)cc12 [Compound P378, 2,4,5-Trifluoro-N-{3-[5-fluoro-3-methyl-7-(naphthalen-2-yloxy)-indol-1-yl]-propionyl}-benzenesulfonamide]
< 1000 | Cn1cc(C=CC(=O)NS(=O)(=O)c2ccc(F)c(F)c2)c2c(Oc3ccc(Cl)c(F)c3)cccc21 [Compound P332]
< 1000 | Cn1cc(C=CC(=O)NS(=O)(=O)c2cc(F)c(F)cc2F)c2c(Oc3ccc4ncccc4c3)cccc21 [Compound P377]
< 1000 | Cc1cn(Cc2cn3ccccc3n2)c2c(C=CC(=O)NS(=O)(=O)c3ccc(F)cc3F)cc(F)cc12 [Compound P413]
< 1000 | O=C(COc1cccc2[nH]cc(Sc3ccc4ccccc4c3)c12)NS(=O)(=O)C(F)(F)F [Compound P243]
< 1000 | Cc1cn(CCC(=O)NS(=O)(=O)c2cccc(Cl)c2)c2c(Oc3ccc4ccccc4c3)cc(F)cc12 [Compound P381]
< 1000 | CC12CCCC(C=CC(=O)NS(=O)(=O)c3cccs3)=C1N(Cc1ccc(Cl)cc1Cl)C(=O)C2 (centres unmarked) [Compound P276]
< 1000 | Cn1cc(C=CC(=O)NS(=O)(=O)c2ccccc2F)c2c(Oc3ccc4ccccc4c3)cccc21 [Compound P364]
< 1000 | O=C(C=Cc1cccc2c1C(=Nc1ccc3ccccc3c1)C(=O)N2)NS(=O)(=O)c1cc(Cl)c(Cl)s1 [Compound P244]
< 1000 | COc1cccc(CN2C(=O)CC3(C)CCCC(C=CC(=O)NS(=O)(=O)c4cc(Cl)c(Cl)s4)=C23)c1 (centres unmarked) [Compound P260]
< 1000 | Cn1c(Sc2c[nH]c3cccc(OCC(=O)NS(=O)(=O)c4cc(Cl)c(Cl)s4)c23)nc2ccccc21 [Compound P195]
< 1000 | COc1cccc(CN2C(=O)CC3(C)CCCC(C=CC(=O)NS(=O)(=O)c4cc(F)c(F)cc4F)=C23)c1 (centres unmarked) [Compound P306]

Reference: patent publication US7598397B2, “Sulfonamide peri-substituted bicyclics for occlusive artery disease” (deCODE genetics ehf, priority 2004, dated 2009)
